Measurements published in US11440880B2, “Thalidomide analogs and methods of use” (The USA, as represented by the Secretary, Department of …, priority 2015, dated 2022).

Legend:
Assay type in all cases: cell-based, mouse
Design in all cases: key: NS=not significant; a “+” sign=anti-inflammatory or increased cell numbers; a “−” sign=cell toxicity or pro-inflammatory
RAW 264.7 cells = assay: Cell viability (CellTiter 96 AQueous One) of LPS-challenged RAW 264.7 cells
Procedure: The CellTiter 96® AQueous One Solution Cell Proliferation Assay (Promega, Madison, Wis.) is routinely used as an assay of cell proliferation, and was used according to the manufacturer's recommendations. Changes in cellular health status are determined by use of indirect measures related to the formation of a colored tetrazolium dye product that can be measured spectrophotometrically at 490 nm λ. […] Optical densities (expressed as O.D.s) were measured after various incubations.
(§1) RAW 264.7 cells obtained from ATCC (Manassas, Va., USA) were grown in DMEM media supplemented with 10% FCS, penicillin 100 μg/ml and streptomycin 100 μg/ml, and maintained at 37° C. and 5% CO2. Cells were seeded in 24 well plates and, 24 hours later, were utilized in studies. One hour prior to the initiation of any study, the seeding media was replaced with fresh media (1 mL), and the cells were allowed to equilibrate at 37° C. and 5% CO2.
(§2) RAW 264.7 cells were challenged with LPS (Sigma, St Louis, Mo.: serotype 055:B5) from at a final concentration of 30 or 60 ng/mL. This concentration of LPS in RAW 264.7 cells induces a sub-maximal rise in both TNF-alpha and nitrite levels without a loss in cellular viability. This sub-maximal rise is useful for assessing whether the addition of an experimental drug can either lower or further raise levels of TNF-α and nitrite. Twenty four hours following the addition of LPS, conditioned media was harvested and analyzed for quantification of secreted TNF-α protein and nitrite levels. Fresh media was replaced into the wells and cell viability was then assessed.
(§3) Thalidomide and analogs were prepared in tissue culture grade DMSO (Sigma). RAW 264.7 cells were pretreated with thalidomide, analogues or vehicle one hour prior to a challenge with LPS. The effects of various concentrations of thalidomide analogues were assessed. All compounds were synthesized to a chemical purity of >99.5%, as assessed by chemical characterization by a combination of 1H NMR, 13C NMR and GC/MS analyses (Bruker AC-300 spectrometer, together with elemental analyses (Atlantic Microlab, Inc., Norcross, Ga.).

TNF-α protein = TNF-α protein level (ELISA) in LPS-challenged RAW 264.7 cells; settings: LPS 30 or 60 ng/mL, 24 h
Procedure: (§4) Nitrite levels in the culture media were measured by use of the Griess Reagent System (Promega, Madison, Wis.), following the manufacturer's protocol. The O.D. of unknown samples was read at 520 nm λ, compared to a sodium nitrite standard curve (1.5 μM to 100 μM) and nitrite measured media concentrations expressed as μM units. As the lowest nitrite concentration on the Griess Reagent System standard curve was 1.5 μM, this was chosen as the effective cutoff for defining measurable nitrite concentrations. TNF-α protein levels were measured by use of an ELISA specific for mouse TNF-α protein (BioLegend, San Diego, Calif.) and are expressed as a % change from their appropriate control or as pg/ml.
as §1, §2, §3

[1] = system: nitrite levels in the culture media; assay: Nitrite level (Griess Reagent System) in LPS-challenged RAW 264.7 cells; settings: LPS 30 or 60 ng/mL, 24 h
Procedure: as §4, §1, §2, §3

c1ccc2c(c1)CN=C2C1=NCc2ccccc21 [Compound 106]
Viability (RAW 264.7 cells; 3 μM): +
Viability (RAW 264.7 cells; 10 μM): +
Viability (RAW 264.7 cells; 30 μM): +
TNF-α (TNF-α protein; 3 μM): NS
TNF-α (TNF-α protein; 10 μM): NS
TNF-α (TNF-α protein; 30 μM): NS

S=C1c2ccccc2CN1C12CC3CC(CC1C3)C2 [Compound 75]
Viability (RAW 264.7 cells; 1 μM): NS
Viability (RAW 264.7 cells; 10 μM): NS
Viability (RAW 264.7 cells; 30 μM): NS
Nitrite ([1]; 1 μM): NS
Nitrite ([1]; 10 μM): NS
Nitrite ([1]; 30 μM): NS
TNF-α (TNF-α protein; 1 μM): NS
TNF-α (TNF-α protein; 10 μM): +
TNF-α (TNF-α protein; 30 μM): +

C[C@H]1[C@H](N2C(=O)C3C4C=CC(C4)C3C2=O)C[C@@H]2C[C@H]1C2(C)C (some centres unmarked) [Compound 120]
Viability (RAW 264.7 cells; 10 μM): −
TNF-α (TNF-α protein; 10 μM): +

CC(N1Cc2ccccc2C1=O)C12CC3CC(CC(C3)C1)C2 (centres unmarked) [Compound 71]
Viability (RAW 264.7 cells; 1 μM): NS
Viability (RAW 264.7 cells; 10 μM): NS
Viability (RAW 264.7 cells; 30 μM): −
Nitrite ([1]; 1 μM): NS
Nitrite ([1]; 10 μM): NS
Nitrite ([1]; 30 μM): +
TNF-α (TNF-α protein; 1 μM): NS
TNF-α (TNF-α protein; 10 μM): NS
TNF-α (TNF-α protein; 30 μM): +

O=C1c2cccc([N+](=O)[O-])c2CN1CC12CC3CC(CC(C3)C1)C2 [Compound 78]
Viability (RAW 264.7 cells; 1 μM): NS
Viability (RAW 264.7 cells; 10 μM): NS
Viability (RAW 264.7 cells; 30 μM): −
Nitrite ([1]; 1 μM): NS
Nitrite ([1]; 10 μM): NS
Nitrite ([1]; 30 μM): +
TNF-α (TNF-α protein; 1 μM): NS
TNF-α (TNF-α protein; 10 μM): +
TNF-α (TNF-α protein; 30 μM): +

Nc1ccc2c(c1)C(=O)N(C1CC=CNC1=O)C2 (centres unmarked) [Compound 44]
Viability (RAW 264.7 cells; 3 μM): NS
Viability (RAW 264.7 cells; 10 μM): NS
Viability (RAW 264.7 cells; 30 μM): NS
TNF-α (TNF-α protein; 3 μM): NS
TNF-α (TNF-α protein; 10 μM): NS
TNF-α (TNF-α protein; 30 μM): +

CC1(C)[C@@H]2CC[C@@]1(C)[C@@H](N1C(=O)C3C4C=CC(C4)C3C1=O)C2 (some centres unmarked) [Compound 116]
Viability (RAW 264.7 cells; 10 μM): −
Viability (RAW 264.7 cells; 30 μM): −
Viability (RAW 264.7 cells; 60 μM): NS
Nitrite ([1]; 10 μM): NS
Nitrite ([1]; 30 μM): NS
Nitrite ([1]; 60 μM): NS
TNF-α (TNF-α protein; 10 μM): NS
TNF-α (TNF-α protein; 30 μM): NS
TNF-α (TNF-α protein; 60 μM): NS

Nc1cccc2c1CN(C13CC4CC(CC(O)(C4)C1)C3)C2=O [Compound 88]
Viability (RAW 264.7 cells; 1 μM): NS
Viability (RAW 264.7 cells; 10 μM): NS
Viability (RAW 264.7 cells; 30 μM): NS
Nitrite ([1]; 1 μM): NS
Nitrite ([1]; 10 μM): NS
Nitrite ([1]; 30 μM): NS
TNF-α (TNF-α protein; 1 μM): NS
TNF-α (TNF-α protein; 10 μM): NS
TNF-α (TNF-α protein; 30 μM): NS

Nc1ccc2c(c1)C(=O)N(C1=CNC(=O)CC1)C2 [Compound 43]
Viability (RAW 264.7 cells; 3 μM): NS
Viability (RAW 264.7 cells; 10 μM): NS
Viability (RAW 264.7 cells; 30 μM): NS
TNF-α (TNF-α protein; 3 μM): NS
TNF-α (TNF-α protein; 10 μM): NS
TNF-α (TNF-α protein; 30 μM): NS

CC1(C)[C@@H]2CC[C@]1(C)[C@@H](N1C(=O)C3CC=CCC3C1=O)C2 (some centres unmarked) [Compound 115]
Viability (RAW 264.7 cells; 10 μM): −
Viability (RAW 264.7 cells; 30 μM): −
Viability (RAW 264.7 cells; 60 μM): −
Nitrite ([1]; 10 μM): +
Nitrite ([1]; 30 μM): +
Nitrite ([1]; 60 μM): +
TNF-α (TNF-α protein; 10 μM): +
TNF-α (TNF-α protein; 30 μM): +
TNF-α (TNF-α protein; 60 μM): +

CC1(C)[C@@H]2CC[C@]1(C)[C@H](N1Cc3c(N)cccc3C1=O)C2 [Compound 95]
Viability (RAW 264.7 cells; 1 μM): NS
Viability (RAW 264.7 cells; 10 μM): +
Viability (RAW 264.7 cells; 30 μM): +
Nitrite ([1]; 1 μM): NS
Nitrite ([1]; 10 μM): NS
Nitrite ([1]; 30 μM): +
TNF-α (TNF-α protein; 1 μM): NS
TNF-α (TNF-α protein; 10 μM): NS
TNF-α (TNF-α protein; 30 μM): NS

O=C1CCCC(=O)N1CN1C(=O)CCC(N2Cc3ccccc3C2=O)C1=O (centres unmarked) [Compound 48]
Viability (RAW 264.7 cells; 1 μM): NS
Viability (RAW 264.7 cells; 10 μM): NS
Viability (RAW 264.7 cells; 30 μM): NS
TNF-α (TNF-α protein; 1 μM): +
TNF-α (TNF-α protein; 10 μM): +
TNF-α (TNF-α protein; 30 μM): +
